The supplement of paper PMC11061612

Tests used:
Test in all cases: combination Emax (second highest fraction inhibited in the dose matrix, 72 h); higher = more inhibition; extreme values may be limits of the assay
A704 (Kidney Carcinoma) = test system: A704 (Kidney Carcinoma)
Outline: (§1)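 After 24 hours at 37°C and 5% CO2 in 1536-well plates, cells in DMEM/F12 or RPMI plus 10% FBS received two-drug dose matrices for 72 hours. Viability came from CellTiter-Glo 2.0 luminescence and was scaled as inhibition, anchored at 0 by vehicle wells and at 1 by blank wells. Combination Emax is taken as the second-highest inhibition in the matrix, and Bliss excess as the observed combination effect less EA + EB − EA·EB, with EA and EB the single-agent effects.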

[1] = test system: ASH-3 (Thyroid Gland Carcinoma)
Outline: as §1

BT-20 (Breast Carcinoma) = test system: BT-20 (Breast Carcinoma)
Outline: as §1

[2] = test system: BV-173 (Chronic Myelogenous Leukemia)
Outline: as §1

[3] = test system: EBC-1 (Squamous Cell Lung Carcinoma)
Outline: as §1

GI-1 (Glioblastoma) = test system: GI-1 (Glioblastoma)
Outline: as §1

[4] = test system: H-EMC-SS (Chondrosarcoma)
Outline: as §1

[5] = test system: HSC-2 (Oral Cavity Carcinoma)
Outline: as §1

[6] = test system: KINGS-1 (Low Grade Glioma)
Outline: as §1

[7] = test system: KLE (Endometrial Carcinoma)
Outline: as §1

[8] = test system: KP-2 (Pancreatic Carcinoma)
Outline: as §1

[9] = test system: KU-19-19 (Bladder Carcinoma)
Outline: as §1

[10] = test system: NCI-H2347 (Lung Adenocarcinoma)
Outline: as §1

[11] = test system: NCI-N87 (Gastric Carcinoma)
Outline: as §1

NH-12 (Neuroblastoma) = test system: NH-12 (Neuroblastoma)
Outline: as §1

[12] = test system: PF-382 (T-Lymphoblastic Leukemia)
Outline: as §1

RPMI-7951 (Melanoma) = test system: RPMI-7951 (Melanoma)
Outline: as §1

[13] = test system: SCC-3 (B-Cell Non-Hodgkin's Lymphoma)
Outline: as §1

[14] = test system: SCC-9 (Oral Cavity Carcinoma)
Outline: as §1

[15] = test system: SNU-C1 (Colorectal Carcinoma)
Outline: as §1

Cc1c2c(nn1C)CSCc1cc(n(C)n1)CSc1cc(c3ccccc3c1)OCCCc1c(C(=O)O)n(C)c3c-2c(Cl)ccc13 [AZD5991] + CN(C)CCCOc1ccc(-c2ccc3ncc4c(c3c2)n(C2CCOCC2)c(=O)n4C)cn1 [AZD0156] (first compound max 1 µM, 7x7, partner max 1 µM)
combination Emax (A704 (Kidney Carcinoma)): 0.24
combination Emax [1]: 0.344
combination Emax (BT-20 (Breast Carcinoma)): 0.636
combination Emax [2]: 0.95
combination Emax [3]: 0.251
combination Emax (GI-1 (Glioblastoma)): 0.774
combination Emax [4]: 0.431
combination Emax [5]: 0.835
combination Emax [6]: 0.278
combination Emax [7]: 0.262
combination Emax [8]: 0.18
combination Emax [9]: 0.253
combination Emax [10]: 0.239
combination Emax [11]: 0.45
combination Emax (NH-12 (Neuroblastoma)): 0.226
combination Emax [12]: 0.337
combination Emax (RPMI-7951 (Melanoma)): 0.945
combination Emax [13]: 0.396
combination Emax [14]: 0.269
combination Emax [15]: 0.424

CC(=O)c1c(C)c2cnc(Nc3ccc(N4CCNCC4)cn3)nc2n(C2CCCC2)c1=O [Palbociclib] + Cc1c2c(nn1C)CSCc1cc(n(C)n1)CSc1cc(c3ccccc3c1)OCCCc1c(C(=O)O)n(C)c3c-2c(Cl)ccc13 [AZD5991] (first compound max 10 µM, 7x7, partner max 1 µM)
combination Emax (A704 (Kidney Carcinoma)): 0.595
combination Emax [1]: 0.398
combination Emax (BT-20 (Breast Carcinoma)): 0.916
combination Emax [2]: 0.88
combination Emax [3]: 0.36
combination Emax (GI-1 (Glioblastoma)): 0.455
combination Emax [4]: 0.502
combination Emax [5]: 0.696
combination Emax [6]: 0.258
combination Emax [7]: 0.181
combination Emax [8]: 0.225
combination Emax [9]: 0.435
combination Emax [10]: 0.148
combination Emax [11]: 0.417
combination Emax (NH-12 (Neuroblastoma)): 0.478
combination Emax [12]: 0.633
combination Emax (RPMI-7951 (Melanoma)): 0.732
combination Emax [13]: 0.626
combination Emax [14]: 0.217
combination Emax [15]: 0.142

Cn1cnc2c(F)c(Nc3ccc(Br)cc3Cl)c(C(=O)NOCCO)cc21 [Selumetinib] + C[C@@H]1COCCN1C2=NC(=NC(=C2)C3(CC3)[S@](=N)(=O)C)C4=C5C=CNC5=NC=C4 [AZD6738] (first compound max 10 µM, 7x7, partner max 10 µM)
combination Emax (A704 (Kidney Carcinoma)): 0.391
combination Emax [1]: 0.607
combination Emax (BT-20 (Breast Carcinoma)): 0.576
combination Emax [2]: 0.947
combination Emax [3]: 0.934
combination Emax (GI-1 (Glioblastoma)): 0.781
combination Emax [4]: 0.296
combination Emax [5]: 0.569
combination Emax [6]: 0.292
combination Emax [7]: 0.442
combination Emax [8]: 0.483
combination Emax [9]: 0.89
combination Emax [10]: 0.382
combination Emax [11]: 0.632
combination Emax (NH-12 (Neuroblastoma)): 0.91
combination Emax [12]: 0.912
combination Emax (RPMI-7951 (Melanoma)): 0.873
combination Emax [13]: 0.933
combination Emax [14]: 0.463
combination Emax [15]: 0.641
